{
  "source": "paper PMC11116330",
  "about": "“The evolutionary novelty of insect defensins: from bacterial killing to toxin neutralization” (Cellular and Molecular Life Sciences: CMLS, 2024)",
  "key": {"[1]": {"tested_on": "Methicillin-sensitive Staphylococcus aureus (MSSA) CGMCC 1.89", "assay": "Inhibition-zone antimicrobial assay", "type": "cell-based", "details": "1 nmol/well"}, "[2]": {"tested_on": "S15 DNA (15-bp fragment derived from the MRE motif CES11D1)", "assay": "Electrophoretic mobility shift assay (EMSA)", "type": "binding", "details": "5 µM annealed double strand S15, DvirARP 2, 4 or 8 µM, room temperature 20 min, 6% native polyacrylamide, ethidium bromide staining"}, "[3]": {"assay": "Variable temperature CD spectroscopy", "type": "physicochemical", "details": "10 to 65 °C, oxidized product, 5 mM PB pH 7.0", "method": "For CD analysis, a peptide sample was dissolved in 5 mM phosphate buffer (PB, pH7.0) with a concentration of 0.1–0.2 mg/mL. CD spectra were measured on the Chirascan Plus spectropolarimeter v.4.4.0 (Applied Photophysics Ltd, UK) by using a quartz cell of 1.0 mm thickness. The wavelengths used ranged from 190 to 260 nm. Data were collected at 1 nm intervals with a scan rate of 0.5 s per point and expressed as delta epsilon (cm^-1M^-1). Delta epsilon was calculated as [θ×(MRW×0.1)/(C×L)/3298], where θ is the ellipticity (in millidegrees), C is the concentration (in mg/mL), L is the path length (in cm), and MRW is the mean residue weight (in Da).\nFig. 4 Experiment data-guided structural model of DvirARP built by comparative modelling. (A) Comparison of CD spectra of reduced and oxidized DvirARP in 5 mM PB buffer (pH7.0). Signature bands for the presence of cation–π and 3_10-helix are denoted by arrows. (B) Thermal denaturation curves of the oxidized product at indicated temperatures. (C) Sequence comparison between DvirARP and the template MSL2 CXC (residues 542–559). Identical and conserved residues are shadowed in yellow and grey, respectively. Residues involved in cation–π interactions are underlined twice. The predicted secondary structure element and disulfide bridges are extracted from the experiment-based computational model. […] (E) The cation–π interaction on the DvirARP structure. […]"}, "[4]": {"tested_on": "Bacillus megaterium CGMCC 1.0459"}, "[5]": {"tested_on": "Micrococcus luteus CGMCC 1.0290"}},
  "note": "Like-named read-outs stand apart in the source and are kept apart here. Positions of bridges follow the written chain, without caps; N, C: chain ends. Residues, ends and D or L forms follow the SMILES beside them.",
  "data": [
    {"molecule": "CC[C@H](C)[C@H](NC(=O)[C@H](C)NC(=O)[C@H](CC(N)=O)NC(=O)[C@H](CCCNC(=N)N)NC(=O)[C@H](C)NC(=O)[C@H](CCCNC(=N)N)NC(=O)[C@H](CCCNC(=N)N)NC(=O)[C@H](Cc1ccc(O)cc1)NC(=O)[C@@H]1CSSC[C@H](NC(=O)[C@@H](NC(=O)[C@H](C)N)C(C)C)C(=O)N[C@@H](CCCNC(=N)N)C(=O)N1)C(=O)N[C@H](C(=O)N[C@H]1CSSC[C@@H](C(=O)N[C@@H](CCCNC(=N)N)C(=O)O)NC(=O)[C@H](Cc2ccc(O)cc2)NC1=O)C(C)C", "note": "[DvirARP] (H-AVCRCYRRARNAIVCYCR-OH; disulfide 3-5, 15-17; N-terminus and C-terminus assumed)", "values": [
      {"measurement": "Antibacterial activity in inhibition zone assay against S. aureus CGMCC 1.89", "setting": "[1]; peptide dissolved in 50% haemolymph serum from DvWT female adults", "value": "no detectable antibacterial activity"},
      {"measurement": "Antibacterial activity in inhibition zone assay against S. aureus CGMCC 1.89", "setting": "[1]; peptide dissolved in 50% haemolymph serum from DvdelARP female adults", "value": "no detectable antibacterial activity"},
      {"measurement": "Antibacterial activity in inhibition zone assay against S. aureus CGMCC 1.89", "setting": "[1]; peptide dissolved in insect saline (pH 7.2)", "value": "no detectable antibacterial activity"},
      {"measurement": "Binding of S15 DNA fragment (EMSA)", "setting": "[2]", "value": "not able to bind"},
      {"measurement": "CD signature band around 230 nm (cation–π interaction) with temperature", "setting": "[3]", "value": "decreased with the temperature increase"},
      {"measurement": "CD signature band at 206 nm (3_10-helix) with temperature", "setting": "[3]", "value": "overall retained"},
      {"measurement": "Lethal concentration CL", "setting": "[4]; Bacillus CGMCC 1.0459, pH 7", "value": 17.68, "unit": "µM"},
      {"measurement": "Lethal concentration CL", "setting": "[4]; inhibition-zone assay, 0.8% agar, 2 µL peptide per 2-mm well, peptide in 5 mM PB pH 7.0, overnight, Bacillus megaterium CGMCC 1.0459", "value": "> 10", "unit": "µM"},
      {"measurement": "Lethal concentration CL", "setting": "[5]; CGMCC 1.0290, pH 7", "value": 10.77, "unit": "µM"},
      {"measurement": "Lethal concentration CL", "setting": "[5]; inhibition-zone assay, 0.8% agar, 2 µL peptide per 2-mm well, peptide in 5 mM PB pH 7.0, overnight, Micrococcus luteus CGMCC 1.0290", "value": "> 10", "unit": "µM"}
    ]}
  ]
}
